Values quoted from earlier work in patent publication EP2959895A1, “Compositions comprising Phenylalanine and Leucine for use in the diagnosis and treatment of neurological disorders and symptoms thereof” (Rheinisch-Westfälische Technische Hochschule Aachen (RWTH), priority 2014, dated 2015).

Target: T1, L-1 transporter (Rattus norvegicus, UniProt Q63016)
T1 construct: blood brain barrier (BBB) transport for fourteen amino acids in anesthetized rats; host or cells: Blood-brain barrier of anesthetized rats, in vivo
T1 sequence (Q63016 whole entry): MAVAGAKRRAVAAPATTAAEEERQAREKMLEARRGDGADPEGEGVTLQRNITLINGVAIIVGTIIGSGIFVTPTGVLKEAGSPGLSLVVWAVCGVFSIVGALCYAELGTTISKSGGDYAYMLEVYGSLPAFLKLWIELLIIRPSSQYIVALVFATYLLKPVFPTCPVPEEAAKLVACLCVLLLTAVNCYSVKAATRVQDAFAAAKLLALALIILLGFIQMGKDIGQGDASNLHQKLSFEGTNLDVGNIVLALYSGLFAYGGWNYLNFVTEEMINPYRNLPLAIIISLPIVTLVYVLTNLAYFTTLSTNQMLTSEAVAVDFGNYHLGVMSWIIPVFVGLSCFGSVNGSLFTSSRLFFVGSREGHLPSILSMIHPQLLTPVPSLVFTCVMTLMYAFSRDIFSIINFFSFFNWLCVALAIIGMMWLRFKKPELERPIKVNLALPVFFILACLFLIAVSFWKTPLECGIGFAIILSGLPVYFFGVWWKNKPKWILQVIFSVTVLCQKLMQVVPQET
T1 sequence (Q794F9 whole entry partner): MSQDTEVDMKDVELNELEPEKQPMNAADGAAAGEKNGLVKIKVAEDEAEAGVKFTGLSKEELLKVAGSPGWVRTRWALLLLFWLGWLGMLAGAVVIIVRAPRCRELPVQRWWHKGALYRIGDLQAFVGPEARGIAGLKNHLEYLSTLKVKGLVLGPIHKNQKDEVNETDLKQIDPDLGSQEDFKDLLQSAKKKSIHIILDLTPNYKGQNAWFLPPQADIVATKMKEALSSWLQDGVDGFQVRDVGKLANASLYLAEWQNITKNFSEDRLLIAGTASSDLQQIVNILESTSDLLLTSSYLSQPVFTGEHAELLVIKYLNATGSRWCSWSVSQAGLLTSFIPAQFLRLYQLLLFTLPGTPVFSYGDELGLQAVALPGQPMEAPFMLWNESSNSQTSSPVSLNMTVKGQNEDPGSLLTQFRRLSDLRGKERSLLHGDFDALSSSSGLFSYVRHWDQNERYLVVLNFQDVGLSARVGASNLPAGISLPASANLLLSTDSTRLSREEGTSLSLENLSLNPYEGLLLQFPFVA
Conditions: blood brain barrier (BBB) transport, anesthetized rats; Pardridge and Oldendorf 1975

SMILES	Km
CC(C)C[C@H](N)C(=O)O [leucine]	150 µM
N[C@@H](Cc1ccccc1)C(=O)O [phenylalanine]	120 µM
